{
  "source": "patent US20260242427A1",
  "about": "(priority 2024, published 2026)",
  "key": {"[1]": {"target": "T1, hArg-Cry1Ab fusion particles (human arginase I fused to the N-terminus of Cry1Ab) (Homo sapiens, UniProt P05089)", "T1 construct": "His tag of pET28 (inferred from the NdeI forward primer only) (N); made in house; host or cells: E. coli BL21(DE3)", "T1 sequence (P05089 other isoform, or with tags, fused parts or gaps)": "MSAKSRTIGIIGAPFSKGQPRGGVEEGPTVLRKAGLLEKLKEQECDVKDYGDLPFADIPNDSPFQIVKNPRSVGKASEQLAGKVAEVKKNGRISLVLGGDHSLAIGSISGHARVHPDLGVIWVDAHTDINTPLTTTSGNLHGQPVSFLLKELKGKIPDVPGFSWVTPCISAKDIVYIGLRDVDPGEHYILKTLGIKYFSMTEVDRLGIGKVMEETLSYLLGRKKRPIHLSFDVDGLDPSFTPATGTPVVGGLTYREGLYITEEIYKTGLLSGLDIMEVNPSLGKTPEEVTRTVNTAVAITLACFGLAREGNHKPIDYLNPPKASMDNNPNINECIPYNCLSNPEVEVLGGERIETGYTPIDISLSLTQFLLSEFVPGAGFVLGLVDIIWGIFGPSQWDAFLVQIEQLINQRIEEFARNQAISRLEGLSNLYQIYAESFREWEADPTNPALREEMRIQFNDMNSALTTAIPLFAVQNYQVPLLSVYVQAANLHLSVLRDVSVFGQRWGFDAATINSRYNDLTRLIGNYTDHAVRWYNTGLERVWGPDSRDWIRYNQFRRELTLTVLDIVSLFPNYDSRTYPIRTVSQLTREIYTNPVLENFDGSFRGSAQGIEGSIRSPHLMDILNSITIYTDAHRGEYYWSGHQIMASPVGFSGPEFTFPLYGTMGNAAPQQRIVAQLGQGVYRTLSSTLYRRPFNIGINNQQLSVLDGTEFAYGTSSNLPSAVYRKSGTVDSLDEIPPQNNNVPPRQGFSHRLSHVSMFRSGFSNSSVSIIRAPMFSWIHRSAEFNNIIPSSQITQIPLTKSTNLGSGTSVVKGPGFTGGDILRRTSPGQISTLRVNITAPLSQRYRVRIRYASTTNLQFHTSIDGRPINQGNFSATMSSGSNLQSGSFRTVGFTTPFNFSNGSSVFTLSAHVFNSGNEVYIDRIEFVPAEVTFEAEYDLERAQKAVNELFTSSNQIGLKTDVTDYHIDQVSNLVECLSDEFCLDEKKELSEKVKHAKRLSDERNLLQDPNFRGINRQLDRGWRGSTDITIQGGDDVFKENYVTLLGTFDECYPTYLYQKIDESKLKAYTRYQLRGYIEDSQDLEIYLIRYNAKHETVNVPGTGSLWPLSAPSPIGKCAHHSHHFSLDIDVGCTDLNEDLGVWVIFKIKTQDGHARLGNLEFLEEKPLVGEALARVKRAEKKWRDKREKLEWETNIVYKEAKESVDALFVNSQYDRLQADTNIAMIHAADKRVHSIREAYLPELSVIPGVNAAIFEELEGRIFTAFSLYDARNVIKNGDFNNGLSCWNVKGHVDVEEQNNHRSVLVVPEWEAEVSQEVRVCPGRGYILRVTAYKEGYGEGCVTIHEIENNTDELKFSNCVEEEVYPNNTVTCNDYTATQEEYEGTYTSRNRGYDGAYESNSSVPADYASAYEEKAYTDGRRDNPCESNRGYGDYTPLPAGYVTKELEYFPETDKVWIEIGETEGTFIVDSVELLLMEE", "assay": "Kinetic studies, immobilized hArg-Cry1Ab particles", "type": "biochemical", "details": "L-arginine 0-500 mM, 40° C., pH 8.0, 0.1 mM Mn^2+, based on concentration of hArg"}, "[2]": {"target": "T2, human arginase I (hArg, Accession Number: NM_000045.4), free enzyme (Homo sapiens, UniProt P05089)", "T2 construct": "His tag with thrombin site of pET28 (inferred from the NdeI primer, the stop codon in the reverse primer and nickel purification); made in house; host or cells: E. coli BL21(DE3)", "T2 sequence (P05089 whole entry)": "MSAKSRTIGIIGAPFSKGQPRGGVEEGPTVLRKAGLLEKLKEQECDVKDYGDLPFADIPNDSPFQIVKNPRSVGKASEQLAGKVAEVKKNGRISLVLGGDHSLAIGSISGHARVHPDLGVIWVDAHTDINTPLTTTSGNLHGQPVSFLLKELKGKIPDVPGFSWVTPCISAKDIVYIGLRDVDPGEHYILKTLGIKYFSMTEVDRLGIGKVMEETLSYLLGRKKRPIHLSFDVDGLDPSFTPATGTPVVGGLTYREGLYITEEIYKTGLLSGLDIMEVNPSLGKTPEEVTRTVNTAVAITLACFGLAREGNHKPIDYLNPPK", "type": "biochemical", "details": "L-arginine 0-500 mM, 40° C., 50 mM HEPES pH 8.0, 0.1 mM Mn^2+", "protocol": "All positive colonies were verified by DNA sequencing (BGI).\nExpression and Purification of ODC and hArg Free Enzymes\n(§1) All experiments were performed in triplicate.\nas §1"}, "[3]": {"target": "T3, 3A-PEI crystals (polyethylenimine-modified Cry3Aa, Bacillus thuringiensis) (Bacillus thuringiensis subsp. tenebrionis, UniProt P0A379)", "T3 construct": "made in house; host or cells: Bacillus thuringiensis BT407G", "T3 sequence (P0A379 1-644)": "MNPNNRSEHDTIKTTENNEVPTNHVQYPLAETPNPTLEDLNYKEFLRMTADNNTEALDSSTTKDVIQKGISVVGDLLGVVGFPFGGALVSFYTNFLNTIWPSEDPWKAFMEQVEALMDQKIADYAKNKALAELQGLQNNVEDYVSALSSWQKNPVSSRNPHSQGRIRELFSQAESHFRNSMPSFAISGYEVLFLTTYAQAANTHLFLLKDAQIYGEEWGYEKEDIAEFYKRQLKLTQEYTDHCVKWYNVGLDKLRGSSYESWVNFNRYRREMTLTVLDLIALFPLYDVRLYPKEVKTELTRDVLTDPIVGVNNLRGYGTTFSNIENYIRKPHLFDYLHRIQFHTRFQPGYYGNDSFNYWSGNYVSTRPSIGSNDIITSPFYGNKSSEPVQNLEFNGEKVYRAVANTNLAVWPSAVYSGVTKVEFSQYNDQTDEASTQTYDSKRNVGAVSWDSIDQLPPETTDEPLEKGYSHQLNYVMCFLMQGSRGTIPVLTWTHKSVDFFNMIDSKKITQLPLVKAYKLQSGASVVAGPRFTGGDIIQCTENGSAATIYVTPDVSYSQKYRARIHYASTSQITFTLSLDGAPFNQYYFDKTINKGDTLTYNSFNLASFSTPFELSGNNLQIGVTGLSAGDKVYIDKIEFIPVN", "assay": "NADH binding capacity of 3A-PEI crystals", "details": "NaPB 25 mM"}, "[4]": {"target": "T4, Pos3Aa crystals (positively charged variant of Cry3Aa, domain II surface residues mutated) (Bacillus thuringiensis, UniProt P0A379)", "T4 construct": "engineered Cry3Aa, domain II surface residues replaced by Lys/Arg; no PEI; crystals produced in Bacillus thuringiensis (usual host)", "assay": "NADH binding capacity of Pos3Aa crystals", "details": "0.25 mM NADH, 10° C., 30 min, 340 nm", "protocol": "Previous studies by our lab had generated a positively charged variant of Cry3Aa, Pos3Aa, by mutating multiple residues on the surface of domain II of Cry3Aa to lysines creating a positively charged surface.\nTo compare the binding capacity of 3A-PEI crystals with Cry3Aa and Pos3Aa crystals, the same experiment was conducted as the control.\nCry3Aa is a self-crystallization protein produced naturally by certain strains of Bt. Our group has used crystals and particles of Cry3Aa for entrapment of positively charged small peptides and proteins due to the presence of abundant negatively charged residues, aspartic acid (Asp) and glutamic acid (Glu) residues, on the exposed surface of its domain II, which forms the solvent channels (FIG. 1A). We have engineered a protein called Pos3Aa, derived from the replacement of all these residues in domain II of Cry3Aa with positively charged arginine (Arg) and lysine (Lys) residues, which provide positively charged channels within the crystals. We hypothesized that these crystals would be able to entrap negatively charged molecules, such as phosphorylated cofactors, ionically inside the channels. […] Each molecular mass unit of this polymer (43 kDa) has 3 to 3.6-fold higher protonated nitrogen than poly-Arg and poly-Lys (one positive charge per 157 and 129 molecular masses), respectively. […]"}, "[5]": {"target": "T2, human arginase I (hArg, Accession Number: NM_000045.4), free enzyme", "assay": "Effect of urea on the activity of hArg", "type": "biochemical", "details": "0 to 1 M urea, 40° C., 6 h", "protocol": "as §1, §1"}},
  "data": [
    {"smiles": "N=C(N)NCCC[C@H](N)C(=O)O", "note": "[L-arginine]", "values": [
      {"measurement": "kcat", "setting": "[1]", "value": "59.7 ± 0.8", "unit": "s⁻¹"},
      {"measurement": "Km", "setting": "[1]; read-out: appKm", "value": "18.5 ± 0.3", "unit": "mM"},
      {"measurement": "kcat", "setting": "[2]", "value": "99.9 ± 1.7", "unit": "s⁻¹"},
      {"measurement": "Km", "setting": "[2]; read-out: appKm", "value": "20 ± 1.3", "unit": "mM"}
    ]},
    {"smiles": "NC(=O)C1=CN([C@@H]2O[C@H](COP(=O)(O)OP(=O)(O)OC[C@H]3O[C@@H](n4cnc5c(N)ncnc54)[C@H](O)[C@@H]3O)[C@@H](O)[C@H]2O)C=CC1", "note": "[NADH, nicotinamide adenine dinucleotide]", "values": [
      {"measurement": "NADH binding capacity", "setting": "[3]; pH 6.0", "value": "453.5 ± 2.8", "unit": "µmol/g"},
      {"measurement": "NADH binding capacity", "setting": "[3]; pH 7.0", "value": "412 ± 4", "unit": "µmol/g"},
      {"measurement": "NADH binding capacity", "setting": "[3]; pH 8.0", "value": "350.2 ± 3.6", "unit": "µmol/g"},
      {"measurement": "NADH binding capacity", "setting": "[4]", "value": "11.2 ± 0.7", "unit": "µmol/g"}
    ]},
    {"smiles": "NC(N)=O", "note": "[urea]", "values": [
      {"measurement": "effect of urea on activity", "setting": "[5]", "value": "unaffected"}
    ]}
  ]
}
